IC50 and inhibition data for 6 compounds are collected here from patent publication US20200216417A1, “INHIBITORS OF FIBROBLAST ACTIVATION PROTEIN” (Praxis Biotech LLC, priority 2019, published 2020).

Like-named read-outs stand apart in the source and are kept apart here.

The target in assay [1] is T1, recombinant human FAPα (rhFAPα) (Homo sapiens, UniProt Q12884).
T1 construct: purchased R&S system (so in the source)
T1 sequence (Q12884 1-760): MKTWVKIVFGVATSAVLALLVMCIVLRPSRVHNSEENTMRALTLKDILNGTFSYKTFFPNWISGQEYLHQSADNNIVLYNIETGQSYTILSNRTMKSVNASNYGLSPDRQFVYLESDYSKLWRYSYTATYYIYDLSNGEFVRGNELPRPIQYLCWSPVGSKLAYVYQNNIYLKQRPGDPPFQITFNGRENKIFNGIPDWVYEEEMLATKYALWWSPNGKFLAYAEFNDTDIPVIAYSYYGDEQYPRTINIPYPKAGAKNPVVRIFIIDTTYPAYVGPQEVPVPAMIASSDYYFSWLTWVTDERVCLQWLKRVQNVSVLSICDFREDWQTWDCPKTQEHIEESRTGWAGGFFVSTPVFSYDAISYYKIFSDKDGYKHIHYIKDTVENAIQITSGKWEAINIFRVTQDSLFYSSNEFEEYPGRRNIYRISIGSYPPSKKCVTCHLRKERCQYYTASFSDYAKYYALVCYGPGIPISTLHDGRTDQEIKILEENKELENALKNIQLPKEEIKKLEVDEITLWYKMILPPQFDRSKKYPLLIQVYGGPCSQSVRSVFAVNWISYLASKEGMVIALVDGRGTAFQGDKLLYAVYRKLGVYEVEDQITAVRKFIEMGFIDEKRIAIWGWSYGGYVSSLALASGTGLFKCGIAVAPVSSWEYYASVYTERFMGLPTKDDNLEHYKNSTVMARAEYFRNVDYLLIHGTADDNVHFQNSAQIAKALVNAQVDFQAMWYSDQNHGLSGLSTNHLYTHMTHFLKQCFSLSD
The assay can be described thus: FAPα enzymatic exopeptidase (dipeptidase) activity assay, Z-Gly-Pro-AMC. The class given is biochemical.

For assay [2], the target named is T2, recombinant human DPP9 (rhDPP9) (Homo sapiens, UniProt Q86TI2).
T2 construct: purchased R&S system / R&D systems (both sic) 5419-SE
The assay can be described thus: DPP9 enzymatic activity assay, 40 ng rhDPP9, HEPES buffer. The assay is classed as biochemical. To be noted: Table 3A.

Assay [3] concerns the target T3, circulating FAPα (Homo sapiens, UniProt Q12884).
T3 construct: from tissue; host or cells: human plasma (EDTA-K2) from healthy volunteers
T3 sequence (Q12884 24-760 limits assumed): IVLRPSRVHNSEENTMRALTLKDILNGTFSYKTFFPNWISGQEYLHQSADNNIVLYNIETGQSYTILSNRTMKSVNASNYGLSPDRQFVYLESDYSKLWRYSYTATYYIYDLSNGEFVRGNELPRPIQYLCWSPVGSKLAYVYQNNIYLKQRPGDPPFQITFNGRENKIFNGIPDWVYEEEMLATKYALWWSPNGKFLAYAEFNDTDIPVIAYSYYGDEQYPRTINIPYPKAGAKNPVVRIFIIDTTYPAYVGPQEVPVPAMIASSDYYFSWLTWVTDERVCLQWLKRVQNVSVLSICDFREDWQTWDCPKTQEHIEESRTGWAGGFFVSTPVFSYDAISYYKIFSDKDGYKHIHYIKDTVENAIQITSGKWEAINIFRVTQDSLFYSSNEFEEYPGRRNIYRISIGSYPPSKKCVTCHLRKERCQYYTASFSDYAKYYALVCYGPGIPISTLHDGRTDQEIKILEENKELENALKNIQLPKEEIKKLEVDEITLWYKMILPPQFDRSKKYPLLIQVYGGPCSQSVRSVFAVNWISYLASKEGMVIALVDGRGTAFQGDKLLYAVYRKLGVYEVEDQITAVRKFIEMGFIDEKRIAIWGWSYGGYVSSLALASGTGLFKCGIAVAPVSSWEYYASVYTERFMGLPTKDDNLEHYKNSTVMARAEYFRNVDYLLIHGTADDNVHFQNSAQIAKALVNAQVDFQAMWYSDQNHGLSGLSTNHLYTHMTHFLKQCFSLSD
The assay can be described thus: Ex vivo inhibition of circulating FAPα activity from human plasma (PRXS-AMC). The assay is classed as biochemical. The procedure:
Human blood was obtained from healthy young volunteers. Blood samples were collected in tubes coated with EDTA-K2 by venipuncture method, mixed gently, then kept on ice and centrifuged at 2,500×g for 15 minutes at 4° C. After plasma separation, samples were stored at −80° C. in aliquots of 300 μL.
Exemplary compounds were allowed to interact with the enzyme for 15 minutes at 37° C. After pre-incubation, 50 μl of 200 μM PRXS-AMC substrate were added to the all mixtures. All reactions were carried out for 1 h at 37° C. protected from light. AMC release was detected measuring fluorescence at an excitation/emission wavelength of 380/460 nm using a Multifunction Microplate Reader. All measurements were carried out as single point.

Assay [4] concerns the target circulating FAPα (Mesocricetus auratus, UniProt A0ABM2XF29). The assay can be described thus: Ex vivo inhibition of circulating FAPα activity from hamster plasma (PRXS-AMC). The class given is biochemical, Golden Syrian hamster. The procedure:
Male Golden Syrian hamsters were provided by National Laboratory Animal Center (NLAC) in Taiwan. The animals were maintained in a hygienic environment under controlled temperature (20-24° C.) and humidity (50%-80%) with 12 hours light/dark cycles. Free access to standard lab diet [MFG (Oriental Yeast Co., Ltd. Japan)] and autoclaved tap water were granted. All aspects of this work including housing, experimentation and disposal of animals were performed in general accordance with the “Guide for the Care and Use of Laboratory Animals: Eighth Edition” (National Academies Press, Washington, D.C., 2011). In addition, the animal care and use protocol was reviewed and approved by the IACUC at Pharmacology Discovery Services Taiwan, Ltd. Immediately after the sacrifice of hamsters, blood samples were collected via terminal cardiac puncture in tubes coated with EDTA-K2, mixed gently, then kept on ice and centrifuged at 2,500×g for 15 minutes at 4° C. After plasma separation, samples were stored at −80° C. in aliquots of 300 μL. To assay exemplary compounds in hamster plasma, a similar protocol as described for human plasma was performed diluting thawed plasma 1:2 in cFAP buffer. […] AMC release was detected measuring fluorescence at an excitation/emission wavelength of 380/460 nm using a Multifunction Microplate Reader. […]

Assay [5] has as its target T1, recombinant human FAPα (rhFAPα). The assay can be described thus: FAPα enzymatic endopeptidase (collagenase) activity assay, DQ collagen. The class given is biochemical. To be noted: Table 2, read-out: rhFAPα (endo IC50).
Assay [6] deals with human AML cell line MV4-11. The assay can be described thus: Cytotoxicity assay in human leukemia cell lines (Cell-Titer Glo). To be noted: MV4-11, 48 h, read-out: MV4-11 viability IC50, μM.
Setting [7] is: exopeptidase inhibition at 1 μM test compound, Table 2, read-out: rhFAPα (% exo inh @ 1 μM).
The mark [8] stands for this setting: exopeptidase inhibition at 1 μM test compound, Table 3B, read-out: rhFAPα % exo inh @ 1 μM.
Where [9] appears, read: exopeptidase, Table 2, read-out: rhFAPα (exo IC50).
[10] abbreviates: exopeptidase, Table 3A, read-out: rhFAPα (exo IC50).
Setting [11] is: read-out: rhFAPα % exo inh @ 1 μM.
Setting [12] is: read-out: rhFAPα (% exo inh @ 1 μM).

T2 sequence (Q86TI2 whole entry): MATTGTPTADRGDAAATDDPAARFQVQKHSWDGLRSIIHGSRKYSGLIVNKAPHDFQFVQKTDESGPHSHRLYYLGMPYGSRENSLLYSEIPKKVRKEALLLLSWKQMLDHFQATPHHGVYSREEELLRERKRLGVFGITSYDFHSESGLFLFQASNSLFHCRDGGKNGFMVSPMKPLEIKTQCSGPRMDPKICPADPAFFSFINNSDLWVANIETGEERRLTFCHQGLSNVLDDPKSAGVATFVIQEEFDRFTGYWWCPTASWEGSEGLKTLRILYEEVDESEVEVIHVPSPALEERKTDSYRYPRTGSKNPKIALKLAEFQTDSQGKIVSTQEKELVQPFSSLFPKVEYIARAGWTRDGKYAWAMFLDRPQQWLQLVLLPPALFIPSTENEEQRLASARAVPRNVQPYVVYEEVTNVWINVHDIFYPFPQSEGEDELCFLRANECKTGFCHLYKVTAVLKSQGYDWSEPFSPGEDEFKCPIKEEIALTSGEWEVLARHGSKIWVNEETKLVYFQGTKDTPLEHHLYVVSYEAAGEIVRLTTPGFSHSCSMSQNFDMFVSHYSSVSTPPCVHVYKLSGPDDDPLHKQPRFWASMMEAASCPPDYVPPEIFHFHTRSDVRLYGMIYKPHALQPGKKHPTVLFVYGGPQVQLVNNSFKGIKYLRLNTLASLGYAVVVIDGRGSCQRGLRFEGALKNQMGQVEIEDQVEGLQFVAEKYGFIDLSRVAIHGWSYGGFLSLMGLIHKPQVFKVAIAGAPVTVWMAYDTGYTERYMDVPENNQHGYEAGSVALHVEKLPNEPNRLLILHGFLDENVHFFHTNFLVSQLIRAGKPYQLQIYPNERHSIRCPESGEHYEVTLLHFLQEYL
Sequence of circulating FAPα (Mesocricetus auratus, UniProt A0ABM2XF29) (A0ABM2XF29 24-761 limits assumed): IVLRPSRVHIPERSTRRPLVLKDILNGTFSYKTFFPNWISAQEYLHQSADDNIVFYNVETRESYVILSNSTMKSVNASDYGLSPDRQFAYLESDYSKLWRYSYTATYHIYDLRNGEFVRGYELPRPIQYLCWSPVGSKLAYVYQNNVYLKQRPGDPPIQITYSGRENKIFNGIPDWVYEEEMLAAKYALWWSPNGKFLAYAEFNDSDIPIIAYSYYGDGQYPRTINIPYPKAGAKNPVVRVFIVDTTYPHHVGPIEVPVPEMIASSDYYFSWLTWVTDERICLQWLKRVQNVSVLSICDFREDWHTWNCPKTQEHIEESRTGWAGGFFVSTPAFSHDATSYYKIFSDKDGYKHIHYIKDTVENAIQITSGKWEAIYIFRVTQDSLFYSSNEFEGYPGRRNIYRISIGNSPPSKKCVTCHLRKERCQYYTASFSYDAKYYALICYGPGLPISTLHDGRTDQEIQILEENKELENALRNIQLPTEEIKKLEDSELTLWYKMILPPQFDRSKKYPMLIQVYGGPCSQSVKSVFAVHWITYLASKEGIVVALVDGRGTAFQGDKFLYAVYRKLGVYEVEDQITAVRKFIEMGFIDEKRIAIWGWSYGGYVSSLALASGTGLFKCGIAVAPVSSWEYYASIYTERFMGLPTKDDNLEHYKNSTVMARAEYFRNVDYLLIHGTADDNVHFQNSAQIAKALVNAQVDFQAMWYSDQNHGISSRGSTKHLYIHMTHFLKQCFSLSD

In the case of `N#C[C@@H]1CC(F)(F)CN1C(=O)CNC(=O)c1ccncc1NCc1ccc(F)cc1` [Compound 2, (S)—N-(2-(2-cyano-4,4-difluoropyrrolidin-1-yl)-2-oxoethyl)-3-((4-fluorobenzyl)amino)isonicotinamide], the IC50 was below 1 µM in assay [1] (Table 3B, read-out: rhFAP IC50); below 1 µM in assay [1] (setting [9]); below 1 µM in assay [1] (setting [10]); above 10 µM in assay [2]. Besides, the inhibition at 1 µM in assay [1] (setting [7]) and in assay [1] (setting [8]) was above 50% each time.

Consider `COc1ccc(C(=O)Nc2cnccc2C(=O)NCC(=O)N2CC(F)(F)C[C@H]2C#N)cc1` [Compound 3, (S)—N-(2-(2-cyano-4,4-difluoropyrrolidin-1-yl)-2-oxoethyl)-3-(4-methoxybenzamido)isonicotinamide], for which the IC50 was below 1 µM on circulating FAPα [3]; below 1 µM at circulating FAPα [4]; below 1 µM in assay [1] (Table 3B, read-out: rhFAP IC50); below 1 µM in assay [1] (setting [9]); below 1 µM in assay [1] (setting [10]); 1 to 10 µM in assay [2]. Also, in assay [5], the IC50 is below 1 µM. Moreover, the inhibition at 1 µM in assay [1] (setting [11]) and in assay [1] (setting [12]) was above 50% in each case.

As for `N#C[C@@H]1CC(F)(F)CN1C(=O)CNC(=O)c1ccncc1NC(=O)COc1ccc(Cl)c(F)c1` [Compound 5, (S)-3-(2-(4-chloro-3-fluorophenoxy)acetamido)-N-(2-(2-cyano-4,4-difluoropyrrolidin-1-yl)-2-oxoethyl)isonicotinamide], the half-maximal inhibitory concentration (IC50) was below 1 µM in assay [1] (Table 3B, read-out: rhFAP IC50); below 1 µM in assay [1] (setting [9]); below 1 µM in assay [1] (setting [10]); 1 to 10 µM in assay [2]. Moreover, the inhibition at 1 µM in assay [1] (setting [7]) and in assay [1] (setting [8]) was above 50% each time.

In the case of `N#C[C@@H]1CC(F)(F)CN1C(=O)CNC(=O)c1ccncc1Cc1ccccc1F` [Compound 7, (S)—N-(2-(2-cyano-4,4-difluoropyrrolidin-1-yl)-2-oxoethyl)-3-(2-fluorobenzyl)isonicotinamide], the IC50 in assay [1] (Table 3B, read-out: rhFAP IC50) was below 1 µM; in assay [1] (setting [9]) it was below 1 µM; in assay [1] (setting [10]), below 1 µM; in assay [2] it was 1 to 10 µM. The inhibition at 1 µM in assay [1] (setting [7]) and in assay [1] (setting [8]) was above 50% throughout.

For `N#C[C@@H]1CC(F)(F)CN1C(=O)CNC(=O)c1ccncc1Cc1ccc(F)cc1` [Compound 8, (S)—N-(2-(2-cyano-4,4-difluoropyrrolidin-1-yl)-2-oxoethyl)-3-(4-fluorobenzyl)isonicotinamide], the IC50 in assay [1] (Table 3B, read-out: rhFAP IC50) is below 1 µM; in assay [1] (setting [9]) it was below 1 µM; in assay [1] (setting [10]) it was below 1 µM; in assay [2], 1 to 10 µM. Moreover, the inhibition at 1 µM in assay [1] (setting [7]) and in assay [1] (setting [8]) was above 50% in each case.

`N#C[C@@H]1CC(F)(F)CN1C(=O)CNC(=O)c1ccncc1/C=C/c1ccc(Cl)cc1` [Compound 9, (S,E)-3-(4-chlorostyryl)-N-(2-(2-cyano-4,4-difluoropyrrolidin-1-yl)-2-oxoethyl)isonicotinamide]: the IC50 was below 1 µM against circulating FAPα [3]; below 1 µM at circulating FAPα [4]; below 1 µM in assay [1] (Table 3B, read-out: rhFAP IC50); below 1 µM in assay [1] (setting [9]); below 1 µM in assay [1] (setting [10]); above 10 µM in assay [6]. Further, the IC50 in assay [2] and in assay [5] was below 1 µM throughout. In addition, the inhibition at 1 µM in assay [1] (setting [11]) and in assay [1] (setting [12]) was above 50% throughout.

As a reminder, the IC50 is the midpoint of a concentration-inhibition curve.
